# System: LPL of the present invention produced by Streptomyces 7825
# Assay: Inhibition of the LPL
# Type: biochemical
# Conditions: 400 μg/ml protamine sulfate
row,Molecule,inhibition of LPL
1,protamine sulfate,about 30%

# Same assay, conditions: 10 mM deoxycholic acid
row,Molecule,inhibition of LPL
1,C[C@H](CCC(=O)O)[C@H]1CC[C@H]2[C@@H]3CC[C@@H]4C[C@H](O)CC[C@]4(C)[C@H]3C[C@H](O)[C@]12C [deoxycholic acid],about 40%

# Same assay, conditions: 3M NaCl
row,Molecule,inhibition of LPL
1,[Cl-].[Na+] [NaCl],about 40%

# System: LPL of the present invention produced by Streptomyces 7825
# Assay: Substrate specificity of the LPL on lipoproteins consisting of various triglycerides
# Type: biochemical
# Conditions: relative to olive oil as a standard (100%)
# Method: In Table 1, the activity is expressed relative to an olive oil as a standard (100%).
# Titer determination is principally based on the quantitative determination of glycerol formed through the action of LPL on artificial lipoprotein prepared from olive oil as described in Clin. Chim. Acta., Vol. 22, p.
# A mixture of 5 g of olive oil and 5 ml of a 5% (v/v) Triton X-100 solution is subjected to ultrasonication for 10 minutes to prepare a substrate emulsion.
# Seventy microliters of the abovementioned substrate solution, 20 μl of a 0.5M glycine buffer (pH 8.5), 50 μl of 10% (w/v) BSA, and 55 μl of water are mixed in a test tube, and the system is preheated at 37° C. 5 μl of an enzyme solution having an enzyme concentration adjusted to about 10 U/ml, is added to the system. The system is then allowed to react at 37° C. for 10 minutes. After completion of the reaction, the test tube is soaked in boiling water to stop the reaction. After allowing the test tube to cool, 400 μl of isopropanol is added to the reaction system, followed by stirring. The mixture is then centrifuged. 2 ml of isopropanol is then added to 100 μl of the supernatant liquor. The solution is mixed with 1 ml of the above prepared metaperiodic acid solution and 0.5 ml of the above prepared acetylacetone solution to effect a reaction at 50° C. for 30 minutes. The absorbance of the system at 405 nm is measured. A blank estimation (control) is run on a system containing no enzyme solution.
# From the measured values, a calibration curve is prepared using a glycerol solution having a known concentration. Thus the glycerol content of the reaction mixture is determined using the prepared calibration curve.
# The enzyme activity is expressed by taking the amount of the enzyme which forms 1 μmol of glycerol per minute as 1 U.
row,Molecule,Relative Activity [%]
1,CCCCCCCC(=O)OCC(COC(=O)CCCCCCC)OC(=O)CCCCCCC [Tricaprylin],148
2,CCCCCCCCCCCC(=O)OCC(COC(=O)CCCCCCCCCCC)OC(=O)CCCCCCCCCCC [Trilaurin],234
3,CCCCCCCCCC(=O)OCC(COC(=O)CCCCCCCCC)OC(=O)CCCCCCCCC [Tricaprin],153
4,CCCC(=O)OCC(COC(=O)CCC)OC(=O)CCC [Tributyrin],22
5,CCCCCC(=O)OCC(COC(=O)CCCCC)OC(=O)CCCCC [Tricaproin],46
6,CCCCCCCCCCCCCCCC(=O)OCC(COC(=O)CCCCCCCCCCCCCCC)OC(=O)CCCCCCCCCCCCCCC [Tripalmitin],99
7,CCCCCCCCCCCCCCCCCC(=O)OCC(COC(=O)CCCCCCCCCCCCCCCCC)OC(=O)CCCCCCCCCCCCCCCCC [Tristearin],29
8,CCCCCCCC/C=C\CCCCCCCC(=O)OCC(COC(=O)CCCCCCC/C=C\CCCCCCCC)OC(=O)CCCCCCC/C=C\CCCCCCCC [Triolein],75
9,CC(=O)OCC(COC(C)=O)OC(C)=O [Triacetin],28

# — US5232846A, “Method for producing a thermostable lipoprotein lipase from streptomyces” (Unitika Ltd., priority 1988, dated 1993)
